From US12564582B2 (Prilenia Neurotherapeutics Ltd., priority 2016, dated 2026)
Like-named read-outs stand apart in the source and are kept apart here.

What was measured:
[1] = test system: patients with Huntington's disease
Source text: In the UHDRS, maximal dystonia was scored from 0 (absent) to 4 (marked/prolonged) on each of the following items: trunk, right upper extremity, left upper extremity, right lower extremity, and left lower extremity. Maximal dystonia is the sum of all scores.

[2] = test system: patients with Huntington's disease; conditions: 45 mg bid
[3] = test system: patients with Huntington's disease; conditions: after 26 weeks of treatment
Source text: The TFC scale of the UHDRS is a standardized scale used to assess 5 functional domains associated with disability shown below (occupation, finances, domestic chores (e.g. laundry, washing dishes), activities of daily living, and care level).

[4] = test system: patients with Huntington's disease; conditions: for Δ to placebo, change from baseline in UHDRS TMS Gait and Balances: Week 52; for Δ to placebo, change from baseline in UHDRS TMS Gait and Balance: BL TFC≥7
Source text: • CIBIC-Plus global score as compared to baseline • Change from baseline in the PDS score • Change from baseline in UHDRS FA • CGIC as compared to baseline • Change from baseline in UHDRS TFC • Change from baseline in UHDRS IS Global/Functional Scales: • Change from baseline in HD QOL • Change from baseline in Walk-12 scale TMS Subscores: • Change from baseline in hand movement score (defined as the sum of UHDRS domains finger taps, pronate-supinate hands and luria [fist-hand-palm test]) • Change from baseline in Gait and balance score (defined as the sum of UHDRS domains gait, tandem walking and retropulsion pull test) • Change from baseline in UHDRS mMS (defined as the sum of UHDRS domains dysarthria, tongue protrusion, finger taps, pronate-supinate hands, luria, rigidity, bradykinesia, gait, tandem walking, retropulsion pull test) • Change from baseline in UHDRS Chorea • Change from baseline in UHDRS Dystonia • Responders, defined as patients with UHDRS TMS change from baseline≤0 Other Motor Assessments: • Change from baseline in Q Motor measurements including digitomotography (speeded index finger tapping), dysdiadochomotography (pronation/supination hand tapping), manumotography and choreomotography (grip force and chorea analysis) and pedomotography (speeded foot tapping) • Change from baseline in the TUG test Cognitive/Psychiatric Assessments: • Change from baseline in HD-CAB brief: SDMT, Emotion Recognition, Trail Making Test, HVLT-R, Paced Tapping at 3 Hz, OTS. • Change from baseline in PBA-s Safety Variables and Endpoints
The gait and balance score is defined as the sum of UHDRS domains gait, tandem walking and retropulsion pull test.

[5] = test system: patients with Huntington's disease; conditions: Week 26; for Δ to placebo, change from baseline in UHDRS TMS Chorea: ALL; for Wk 26 Δ to placebo, change from baseline in UHDRS TMS Chorea: Stage 1 BL TFC 11-13
Source text: In the UHDRS, maximal chorea was scored from 0 (absent) to 4 (marked/prolonged) on each of the following items: face, mouth, trunk, right upper extremity, left upper extremity, right lower extremity, and left lower extremity. Maximal chorea is the sum of all scores.

[6] = test system: human patients afflicted with dystonia; conditions: periodic (daily or twice daily) oral administration

With `CCCN1CCC(c2cccc(S(C)(=O)=O)c2)CC1` [pridopidine, 4-[3-(methylsulfonyl)phenyl]-1-propyl-piperidine] the “Δ to placebo, change from baseline in UHDRS TMS Dystonia” value ([1]; 90 mg bid, Week 52, all pridopidine treated patients) was −0.27, the “Δ to placebo, change from baseline in UHDRS TMS Dystonia” value ([1]; 90 mg bid, week 26, BL TFC ≥9 and CAG Repeats <44 and BL TMS 1st 3 Qs) was −1.64 and the “Δ to placebo, change from baseline in UHDRS TMS Dystonia” value ([1]; 90 mg bid, week 26, BL TFC≥9 AND CAG Repeats <44) was −1.72. The “Δ to placebo, change from baseline in UHDRS TMS Dystonia” value ([1]; 90 mg bid, week 26, CAG Repeats <44 AND BL TMS 1st 3 Qs) was −1, the “Δ to placebo, change from baseline in UHDRS TMS Dystonia” value ([1]; 112.5 mg bid, Week 26, ALL) was −0.29 and the “Δ to placebo, change from baseline in UHDRS TMS Dystonia” value ([1]; 112.5 mg bid, Week 26, Stage 1 BL TFC 11-13) was −0.53. For the same compound, the “Δ to placebo, change from baseline in UHDRS TMS Dystonia” value ([1]; 112.5 mg bid, Week 52, Stage 1 BL TFC 11-13) was −0.46, the “Δ to placebo, change from baseline in UHDRS TMS Dystonia” value ([1]; 112.5 mg bid, Week 52, all pridopidine treated patients) was −0.24 and the “Δ to placebo, change from baseline in UHDRS TMS Dystonia” value ([1]; 112.5 mg bid, week 26, BL TFC ≥9 and CAG Repeats <44 and BL TMS 1st 3 Qs) was −1.29. The “Δ to placebo, change from baseline in UHDRS TMS Dystonia” value ([1]; 112.5 mg bid, week 26, BL TFC≥9 AND CAG Repeats <44) was −1.4, the “Δ to placebo, change from baseline in UHDRS TMS Dystonia” value ([1]; 112.5 mg bid, week 26, CAG Repeats <44 AND BL TMS 1st 3 Qs) was −0.62 and the “dystonia score, change from baseline” value ([1]; baseline total dystonia score≥4, Week 52, all treatment groups, greatest decreases for 45, 67.5 and 90 mg bid) was “directional clinical improvement”. For the same compound, the “dystonia score, change from baseline” value ([1]; full analysis set, Week 26 or Week 52, all active treatment groups) was “no clinically meaningful changes from baseline”, the “Responders, UHDRS TMS dystonia (improved or no change)” value ([2]; BL dystonia score ≥4, completed 52 weeks, FIG. 16a, placebo 60.0%) was 77.8% and the “Responders, UHDRS TMS dystonia (improved, change≥1)” value ([2]; BL dystonia score ≥4, completed 52 weeks, FIG. 16b, placebo […]) was 66.7%. The “Responders, UHDRS-Limb Dystonia item (improved, change≥1)” value ([2]; BL dystonia score ≥4, completed 52 weeks, placebo […]) was 77.2%, the “Responders, chorea+dystonia items” value ([2]; placebo 66.7%) was 77.8% and the “Total Functional Capacity (TFC)” value [3] was “trends favoring pridopidine”. For the same compound, the “Δ to placebo, change from baseline in UHDRS TMS Gait and Balances” value ([4]; 45 mg bid, Stage 1 BL TFC 11-13) was −0.94, the “Δ to placebo, change from baseline in UHDRS TMS Gait and Balances” value ([4]; 45 mg bid, all pridopidine treated patients) was −0.09 and the “Δ to placebo, change from baseline in UHDRS TMS Gait and Balance” value ([4]; 45 mg bid, week 26) was −0.48. For the same compound, the “Δ to placebo, change from baseline in UHDRS TMS Gait and Balance” value ([4]; 45 mg bid, week 52) was −0.41, the “Δ to placebo, change from baseline in UHDRS TMS Gait and Balances” value ([4]; 67.5 mg bid, Stage 1 BL TFC 11-13) was −0.53 and the “Δ to placebo, change from baseline in UHDRS TMS Gait and Balances” value ([4]; 67.5 mg bid, all pridopidine treated patients) was −0.05. For the same compound, the “Δ to placebo, change from baseline in UHDRS TMS Gait and Balance” value ([4]; 67.5 mg bid, week 26) was −0.37, the “Δ to placebo, change from baseline in UHDRS TMS Gait and Balance” value ([4]; 67.5 mg bid, week 52) was −0.43 and the “Δ to placebo, change from baseline in UHDRS TMS Gait and Balances” value ([4]; 90 mg bid, Stage 1 BL TFC 11-13) was −0.49. The “Δ to placebo, change from baseline in UHDRS TMS Gait and Balances” value ([4]; 90 mg bid, all pridopidine treated patients) was −0.01, the “Δ to placebo, change from baseline in UHDRS TMS Gait and Balance” value ([4]; 90 mg bid, week 26) was −0.62 and the “Δ to placebo, change from baseline in UHDRS TMS Gait and Balance” value ([4]; 90 mg bid, week 52) was −0.28. The “Δ to placebo, change from baseline in UHDRS TMS Gait and Balances” value ([4]; 112.5 mg bid, Stage 1 BL TFC 11-13) was −0.4, the “Δ to placebo, change from baseline in UHDRS TMS Gait and Balances” value ([4]; 112.5 mg bid, all pridopidine treated patients) was 0.04 and the “Δ to placebo, change from baseline in UHDRS TMS Gait and Balance” value ([4]; 112.5 mg bid, week 26) was −0.49. For the same compound, the “Δ to placebo, change from baseline in UHDRS TMS Gait and Balance” value ([4]; 112.5 mg bid, week 52) was −0.09, the “Δ to placebo, change from baseline in UHDRS TMS Chorea” value ([5]; 45 mg bid) was 0.92 and the “Wk 26 Δ to placebo, change from baseline in UHDRS TMS Chorea” value (“Wk 26 Δ to placebo, change from baseline” for short) ([5]; 45 mg bid) was −1.4. The “Δ to placebo, change from baseline in UHDRS TMS Chorea” value ([5]; 67.5 mg bid) was 0.81, the “Wk 26 Δ to placebo, change from baseline” value ([5]; 67.5 mg bid) was −2.07 and the “Δ to placebo, change from baseline in UHDRS TMS Chorea” value ([5]; 90 mg bid) was 0.36. For the same compound, the “Wk 26 Δ to placebo, change from baseline” value ([5]; 90 mg bid) was −2.52, the “Δ to placebo, change from baseline in UHDRS TMS Chorea” value ([5]; 112.5 mg bid) was 1.05 and the “Wk 26 Δ to placebo, change from baseline” value ([5]; 112.5 mg bid) was −1.08. The “dystonia in afflicted patients” value [6] was “effective to reduce dystonia”.
